The test system of this assay is pig liver esterase (PLE; EC 3.1.1.1). Nature of the assay: release of p-nitroaniline at […] nm, saturation curve. In kind it is biochemical, Sus scrofa. The settings on record: PBS pH 7.7, 10% v/v DMSO, 25 °C, PLE 0.25 μg/mL, substrate 0.5-33 μM.

With `CC(=O)Oc1cc(C)cc(C)c1C(C)(C)CC(=O)Nc1ccc([N+](=O)[O-])cc1` [compound 1, prochromophore 1], the Km came to 14 µM.

Values taken from paper PMC2803762 (Molecules, 2008).
